pEC50: −log10 of the molar value. Structures can show the parent of a compound that is named as a salt. Where two headings read alike, the source gives them in different places.
Legend:
[1] = tested on: carbachol-induced contraction in guinea-pigs trachea; assay: Carbachol-induced contraction in guinea-pig trachea strips, relaxation, isobolographic analysis; format: cell-based; conditions: Cavia porcellus, read-out: ED50, relaxation of carbachol-induced contraction
Experimental: Male guinea-pigs (380-420 g) are used. The investigation conforms to the Guide for the Care and Use of Laboratory Animals published by the US National Institutes of Health (NIH Publication No. 85-23, revised 1996).
The trachea is removed, cleaned and cut into two zig-zag strips, according to Emmerson et al. (J. Pharm. Pharmacol., 1979; 31:798). A sub-maximal concentration of carbachol (3×10^−7 M) is then added to the organ bath and when stable contraction is reached, a cumulative concentration-response curve (from 1×10^−11 to 1×10^−7 M) to carmoterol or compound 1′ is generated (n=12 for each compound). Maximal relaxation is tested by adding a maximal dose of isoproterenol (3×10^−7 M) at the end of the curve. Data are expressed as percentages of the isoproterenol-induced maximal relaxation. Isobolographic analysis is used to characterize the pharmacological interaction between carmoterol and compound 1′.
To estimate the experimental ED50MIX, the dose-effect curve resulting from this second set of experiments (Table 1) is fitted with a mixed logistic model. All computations are carried out resorting to NLMIXED procedure (SAS/STAT® User's Guide, version 9, 2004. SAS Institute Inc., Cary, N.C.).

muscarinic receptors = assay: Receptor potency and duration of action compared with tiotropium bromide
M2 muscarinic receptors = biological target: T1, M2 muscarinic receptors (Homo sapiens, UniProt P08172); assay: Dissociation / duration of action on M2 receptors; format: binding; conditions: compared with tiotropium bromide
T1 sequence (P08172 1-466): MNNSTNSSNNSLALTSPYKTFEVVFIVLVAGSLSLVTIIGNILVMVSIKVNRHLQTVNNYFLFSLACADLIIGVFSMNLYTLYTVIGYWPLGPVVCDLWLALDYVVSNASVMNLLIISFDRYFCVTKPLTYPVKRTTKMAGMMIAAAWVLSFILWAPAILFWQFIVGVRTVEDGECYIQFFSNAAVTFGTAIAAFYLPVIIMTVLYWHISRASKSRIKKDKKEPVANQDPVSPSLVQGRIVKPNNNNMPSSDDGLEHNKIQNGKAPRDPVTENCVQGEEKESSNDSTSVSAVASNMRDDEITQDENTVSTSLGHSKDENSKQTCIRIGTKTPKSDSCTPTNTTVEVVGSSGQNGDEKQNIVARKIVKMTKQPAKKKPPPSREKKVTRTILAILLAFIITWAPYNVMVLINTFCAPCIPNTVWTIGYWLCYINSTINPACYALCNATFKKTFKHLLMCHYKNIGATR

[2] = Bronchodilation activity: Ach-induced increase in Penh, barometric plethysmography after nebulisation; format: in vivo, guinea pigs; conditions: male, guinea pig, lung, inhaled; nebulisation with submaximal bronchodilator activity, 2 hours after treatment; read-out: retained dose in the target organ (lung levels)
Experimental: (§1) Airway reactivity is measured using barometric plethysmography (Buxco, USA). Male guinea pigs (500-600 g) are individually placed in plexiglass chambers. After an acclimatisation period, animals are exposed to nebulised saline for 1 minute to obtain airway baseline reading. This is followed by a 1 minute challenge with nebulised acetylcholine (Ach)-2.5 mg/mL.
(§2) After 60 minutes, 5 minutes nebulisation of vehicle or the compound 1′ in the range 2.5-250 μM are applied and Ach challenge is then repeated after 2, 5, 24, 48, and 72 hours (h). Recording of pressure fluctuations in the chambers are taken for 5 minutes after each nebulisation and analysed to calculate Enhanced Pause (Penh). Airway reactivity is expressed as percentage increase in Penh compared with Penh values from the nebulisation of vehicle.

[3] = tested on: acetylcholine (Ach) challenge, airway reactivity; assay: as above; format: in vivo, guinea pigs; conditions: for bronchoprotective effect: twenty-four hours
Experimental: as §1, §2

COc1ccc(C[C@@H](C)NC[C@H](O)c2ccc(O)c3[nH]c(=O)ccc23)cc1 [carmoterol, reference compound]
pEC50 ([1]; carbachol 3×10^−7 M, % of isoproterenol-induced maximal relaxation, n=12): 9.27

O=C(C[N+]12CCC(CC1)C(OC(=O)N(Cc1cc(F)c(F)c(F)c1)c1cccc(F)c1)C2)c1cccs1 (stereo not shown) [chloride salt of active compound 1, 3-[[[(3-fluorophenyl)[(3,4,5-trifluorophenyl)methyl]amino]carbonyl]oxy]-1-[2-oxo-2-(2-thienyl)ethyl]-1-azoniabicyclo[2.2.2]octane]
duration of action (muscarinic receptors): equieffective to tiotropium bromide
receptor potency (muscarinic receptors): equieffective to tiotropium bromide
duration of action on the M2 receptors (M2 muscarinic receptors): significantly short-acting

O=C(C[N+]12CCC(CC1)C(OC(=O)N(Cc1cc(F)c(F)c(F)c1)c1cccc(F)c1)C2)c1cccs1 (stereo not shown) [compound 1′, 3-[[[(3-fluorophenyl)[(3,4,5-trifluorophenyl)methyl]amino]carbonyl]oxy]-1-[2-oxo-2-(2-thienyl)ethyl]-1-azoniabicyclo [2.2.2]octane]
concentration at 2 h [2]: ~50 ng/g
bronchoprotective effect ([3]; 25 μM inhalation): 63.7±15.1%
inhibition of Ach-induced increase in Penh ([3]; 50 μM inhalation, 48 hours): 49.2±23.2%
bronchoprotective effect ([3]; 50 μM inhalation): 87.1±8.7%
maximal effect, inhibition of Ach-induced increase in Penh ([3]; 50 μM nebulised, two hours after end of nebulisation): 99.6±0.4
inhibition of Ach-induced increase in Penh (effect) ([3]; 250 μM inhalation, 48 hours): 83.0±16.1%
residual activity, inhibition of Ach-induced increase in Penh ([3]; 250 μM inhalation, 72 hours): 34.8±20.9%
duration of effect ([3]; inhalation of lower concentrations (below 25 μM)): ≤ 5 h
pEC50 [1]: 9.03

— US20090181935A1, “COMPOSITIONS COMPRISING AN […] AND A LONG-ACTING BETA-AGONIST” (Chiesi Farmaceutici S.p.A., priority 2008, published 2009)
